Test results from publication PMC5372168, “Serine protease SP105 activates prophenoloxidase in Asian corn borer melanization, and is regulated by serpin-3” (Scientific Reports, 2017).

Molecular target: T1, Asian corn borer prophenoloxidase-2 (OfPPO2; PO2) (Ostrinia furnacalis, UniProt Q2I355)
T1 construct: coding region of mature PPO2 in pET28a, E. coli BL21(DE3), purified
T1 sequence (Q2I355 1-692): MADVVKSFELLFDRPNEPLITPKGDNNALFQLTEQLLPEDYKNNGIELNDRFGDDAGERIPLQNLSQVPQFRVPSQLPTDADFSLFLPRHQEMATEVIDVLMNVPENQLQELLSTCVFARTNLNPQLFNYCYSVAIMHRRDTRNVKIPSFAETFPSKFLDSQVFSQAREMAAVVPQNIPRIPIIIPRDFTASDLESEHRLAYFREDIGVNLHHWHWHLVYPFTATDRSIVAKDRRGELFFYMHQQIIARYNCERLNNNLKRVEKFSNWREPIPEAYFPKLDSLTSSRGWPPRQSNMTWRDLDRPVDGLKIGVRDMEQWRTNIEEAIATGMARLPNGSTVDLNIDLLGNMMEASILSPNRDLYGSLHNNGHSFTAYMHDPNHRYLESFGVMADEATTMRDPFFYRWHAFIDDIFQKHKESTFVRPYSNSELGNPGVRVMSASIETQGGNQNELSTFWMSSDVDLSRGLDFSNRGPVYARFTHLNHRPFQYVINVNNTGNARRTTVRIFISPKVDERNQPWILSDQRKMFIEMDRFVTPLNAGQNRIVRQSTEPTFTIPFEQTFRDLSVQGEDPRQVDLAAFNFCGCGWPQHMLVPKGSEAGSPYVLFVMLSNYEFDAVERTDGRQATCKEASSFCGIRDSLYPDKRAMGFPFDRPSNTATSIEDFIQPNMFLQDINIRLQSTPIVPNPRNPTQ
Assay: phenoloxidase assay, A490
Assay type: biochemical
Settings: PPO2 activated by Factor Xa-activated SP105Xa, 37 °C 30 min

## NCCc1ccc(O)c(O)c1 [dopamine]
  phenoloxidase assay, A490: PO activity in the reaction mixtures was measured using dopamine as substrate
